Laboratory results published in patent US9457033B2, “Steroid alkaloids and uses thereof as antimicrobial agents against electron transport-deficient microbes and as potentiators for antimicrobial agents against pathogenic bacteria” (priority 2011, dated 2016).
Converted amounts (≈) assume the structure as drawn. Read-outs that look alike come from different tables or passages of the source.

Legend:
S. aureus SCV CF07-S = experiment: MIC, microdilution in BHI 48 h (Examples 1, 3); assay type: cell-based, Staphylococcus aureus
S. aureus ATCC 29213 = experiment: MIC, microdilution in BHI 48 h (Examples 1, 3); assay type: cell-based, Staphylococcus aureus
[1] = system: S. aureus SCV NewbouldΔhemB; experiment: MIC, microdilution in BHI 48 h; assay type: cell-based, Staphylococcus aureus
S. aureus SCV CF1D-S = experiment: MIC, microdilution in BHI 48 h; assay type: cell-based, Staphylococcus aureus
[2] = system: protein, DNA, RNA and cell wall peptidoglycan biosynthesis in ATCC 29213; experiment: Macromolecular biosynthesis assay, incorporation of radiolabeled precursors; assay type: cell-based, Staphylococcus aureus
[3] = system: S. aureus Newbould (normal strain); experiment: MIC, microdilution in BHI 48 h; assay type: cell-based, Staphylococcus aureus; settings: Newbould, normal strain
[4] = system: S. aureus SCVs (NewbouldΔhemB, CF07-S and CF1D-S); experiment: MIC, microdilution in BHI 48 h, summary for SCVs; assay type: cell-based, Staphylococcus aureus; settings: Staphylococcus aureus, read-out: MIC against all SCVs
normal strain CF07-L = experiment: Broth growth with gentamicin or tomatidine, visually evaluated (FIG. 5A); settings: gentamicin at 4 μg/ml or tomatidine at 0.12 μg/ml alone, 48 h
[5] = system: S. aureus CF1A-L (normal strain); experiment: MIC, microdilution in BHI 48 h; assay type: cell-based, Staphylococcus aureus; settings: CF1A-L, normal strain
[6] = system: Clostridium perfringens ATCC 13124; experiment: microbe, parasite or virus in culture; assay type: cell-based; settings: ATCC13124, 48 h, read-out: Diameter of inhibition zone
S. aureus SCV CF07S = experiment: microbe, parasite or virus in culture; assay type: cell-based; settings: Staphylococcus aureus, SCVCF07S; Tomatidine (50 μg); menadione auxotrophy; 24 hours at 37° C. with O2; DMSO control 0; read-out: Diameter of inhibition zone
[7] = system: S. aureus CF07-L (normal strain); experiment: MIC, microdilution in BHI 48 h (Examples 1, 3); assay type: cell-based, Staphylococcus aureus
S. haemolyticus sh022 = experiment: MIC, microdilution, with or without tomatidine; settings: S. haemolyticus sh022
SCV CF07-S = experiment: Broth growth with gentamicin or tomatidine, visually evaluated (FIG. 5B); settings: gentamicin at 4 μg/ml or tomatidine at 0.12 μg/ml alone, 48 h
S. aureus Mu50 = experiment: MIC, microdilution in CAMHB 24 h; assay type: cell-based, Staphylococcus aureus
[8] = system: all tested S. aureus strains; experiment: Average potentiation of aminoglycoside MIC by tomatidine (FIGS. 6, 7); assay type: cell-based, Staphylococcus aureus; settings: tomatidine at 8 μg/ml
S. hominis sho23 = experiment: MIC, microdilution, with or without tomatidine; settings: S. hominis sho23
S. hominis ssp008c = experiment: MIC, microdilution, with or without tomatidine; settings: S. hominis ssp008c
S. aureus MRSA COL = experiment: MIC, microdilution in CAMHB 24 h; assay type: cell-based, Staphylococcus aureus; settings: MRSA COL
S. aureus Sa220c = experiment: MIC, microdilution in CAMHB 24 h; assay type: cell-based, Staphylococcus aureus; settings: Sa220c
[9] = system: S. epidermidis ATCC 12228; experiment: MIC, microdilution, with or without tomatidine; settings: S. epidermidis ATCC 12228
S. aureus CF9A-L = experiment: MIC, microdilution in CAMHB 24 h; assay type: cell-based, Staphylococcus aureus; settings: CF9A-L
S. aureus N315 = experiment: microbe, parasite or virus in culture; assay type: cell-based, Staphylococcus aureus
[10] = system: S. epidermidis ATCC 35984; experiment: MIC, microdilution, with or without tomatidine; settings: S. epidermidis ATCC 35984
S. haemolyticus sh032 = experiment: MIC, microdilution, with or without tomatidine; settings: S. haemolyticus sh032
[11] = Staphylococcus aureus, read-out: MIC

C[C@H]1CC[C@]2(NC1)O[C@H]1C[C@H]3[C@@H]4CC[C@H]5C[C@@H](O)CC[C@]5(C)[C@H]4CC[C@]3(C)[C@H]1[C@@H]2C [Tomatidine, tomatidine]
MIC (S. aureus SCV CF07-S; CF07-S + HQNO at 20 μg/ml): 0.12 µg/mL
MIC (S. aureus SCV CF07-S; CF07-S, without HQNO): 0.12 µg/mL (≈ 0.289 µM)
MIC (S. aureus SCV CF07-S; Staphylococcus aureus, SCVCF07S): 0.12 µg/mL (≈ 0.289 µM)
MIC (S. aureus ATCC 29213; ATCC 29213 + HQNO at 20 μg/ml): 0.12 to 0.25 µg/mL
MIC (S. aureus ATCC 29213; ATCC 29213, without HQNO): >16 µg/mL
MIC (S. aureus ATCC 29213; ATCC 29213 in MHBCA): >16 µg/mL
MIC (S. aureus ATCC 29213; Staphylococcus aureus, ATCC29213, ATCC 29213 in BHI, read-out: MIC): > 16 µg/mL
MIC (S. aureus ATCC 29213; Staphylococcus aureus, ATCC29213, ATCC 29213, 1 μg/ml CCCP, read-out: MIC in presence of CCCP): 0.12 µg/mL
MIC ([1]; Staphylococcus aureus): 0.12 µg/mL (≈ 0.289 µM)
MIC (S. aureus SCV CF1D-S; Staphylococcus aureus, SCVCF1DS): 0.12 µg/mL (≈ 0.289 µM)
biosynthesis of macromolecules ([2]; in the presence of 20 μg HQNO/ml, all tested concentrations above 0.12 μg/ml, FIG. 3C): decreased the biosynthesis of all macromolecules
synthesis of macromolecules ([2]; tomatidine up to 125 μg/ml, no HQNO, vs DMSO-treated control, FIG. 3B): did not alter the synthesis of any macromolecule
MIC [3, 11]: > 16 µg/mL
MIC [4]: 0.12 µg/mL (≈ 0.289 µM)
growth, visually evaluated (normal strain CF07-L): does not
MIC [5, 11]: > 16 µg/mL
zone of inhibition at 50 µg/disc [6]: 11 mm
zone of inhibition at 50 µg/disc (S. aureus SCV CF07S): 22.5 mm
MIC ([7]; CF07-L + HQNO at 20 μg/ml): 0.5 µg/mL
MIC ([7]; CF07-L, without HQNO): >16 µg/mL
MIC ([7]; Staphylococcus aureus, CF07-L, normal strain, read-out: MIC): > 16 µg/mL

gentamicin
MIC (S. aureus SCV CF07-S; CF07-S + HQNO at 20 μg/ml): 4 to 8 µg/mL
MIC (S. aureus SCV CF07-S; CF07-S, SCV): 8 µg/mL
MIC (S. aureus SCV CF07-S; CF07-S, without HQNO): 8 µg/mL
Fold (−TO/+TO) (S. haemolyticus sh022; 8 μg/ml of tomatidine): 4 fold
MIC +TO (S. haemolyticus sh022; 8 μg/ml of tomatidine): 4 µg/mL
MIC −TO (S. haemolyticus sh022; absence of tomatidine): 16 µg/mL
growth, visually evaluated (SCV CF07-S): does not inhibit the growth
MIC +TO (S. aureus Mu50; Mu50, aac(6′)-aph(2″), ant(4′)-Ia, 8 μg/ml of tomatidine): 16 µg/mL
MIC −TO (S. aureus Mu50; Mu50, aac(6′)-aph(2″), ant(4′)-Ia, absence of tomatidine): 128 µg/mL
Fold (−TO/+TO) (S. aureus Mu50; Mu50, 8 μg/ml of tomatidine): 8 fold
MIC (S. aureus Mu50; Mu50, Human (SSTI), MRSA, VISA): 128 (R) μg/ml
average increase of antibacterial activity [8]: 8±3 fold
MIC (S. aureus ATCC 29213; ATCC 29213 + HQNO at 20 μg/ml): 4 µg/mL
MIC (S. aureus ATCC 29213; ATCC 29213, without HQNO): 1 µg/mL
MIC in presence of CCCP (S. aureus ATCC 29213; ATCC 29213, 1 μg/ml CCCP): 4 to 8 µg/mL
MIC (S. aureus ATCC 29213; ATCC 29213 in BHI): 1 µg/mL
MIC (S. aureus ATCC 29213; ATCC 29213 in MHBCA): 0.5-1^ μg/ml
MIC ([1]; NewbouldΔhemB, SCV): 4 to 8 µg/mL
Fold (−TO/+TO) (S. hominis sho23; 8 μg/ml of tomatidine): 2 fold
MIC +TO (S. hominis sho23; 8 μg/ml of tomatidine): 0.06 µg/mL
MIC −TO (S. hominis sho23; absence of tomatidine): 0.12 µg/mL
Fold (−TO/+TO) (S. hominis ssp008c; 8 μg/ml of tomatidine): 4 fold
MIC +TO (S. hominis ssp008c; 8 μg/ml of tomatidine): 2 µg/mL
MIC −TO (S. hominis ssp008c; absence of tomatidine): 8 µg/mL
MIC (S. aureus SCV CF1D-S; CF1D-S, SCV): 8 µg/mL
MIC [3]: 0.5-1^ μg/ml
Fold (−TO/+TO) (S. aureus MRSA COL; 8 μg/ml of tomatidine): 8-16 fold
MIC +TO (S. aureus MRSA COL; 8 μg/ml of tomatidine): 0.06 µg/mL
MIC (S. aureus MRSA COL; Human (SSTI)): 0.5 to 1 µg/mL
MIC −TO (S. aureus MRSA COL; absence of tomatidine): 0.5 to 1 µg/mL
Fold (−TO/+TO) (S. aureus Sa220c; 8 μg/ml of tomatidine): 4-8 fold
MIC +TO (S. aureus Sa220c; 8 μg/ml of tomatidine): 0.06 to 0.12 µg/mL
MIC (S. aureus Sa220c; Human (SSTI), MRSA): 0.5 µg/mL
MIC −TO (S. aureus Sa220c; absence of tomatidine): 0.5 µg/mL
Fold (−TO/+TO) ([9]; 8 μg/ml of tomatidine): 2 fold
MIC +TO ([9]; 8 μg/ml of tomatidine): 0.06 µg/mL
MIC −TO ([9]; absence of tomatidine): 0.12 µg/mL
MIC +TO (S. aureus CF9A-L; ant(4′)-Ia, 8 μg/ml of tomatidine): 0.06 to 0.12 µg/mL
MIC −TO (S. aureus CF9A-L; ant(4′)-Ia, absence of tomatidine): 0.5 to 1 µg/mL
Fold (−TO/+TO) (S. aureus CF9A-L; 8 μg/ml of tomatidine): 4-8 fold
MIC (S. aureus CF9A-L; Human (CF lungs), MRSA): 0.5 to 1 µg/mL
MIC +TO (S. aureus N315; N315, ant(4′)-Ia, 8 μg/ml of tomatidine): 0.12 µg/mL
MIC −TO (S. aureus N315; N315, ant(4′)-Ia, absence of tomatidine): 1 µg/mL
Fold (−TO/+TO) (S. aureus N315; N315, 8 μg/ml of tomatidine): 8 fold
MIC (S. aureus N315; N315, Human (HA), MRSA): 1 µg/mL
Fold (−TO/+TO) ([10]; 8 μg/ml of tomatidine): 4 fold
MIC +TO ([10]; 8 μg/ml of tomatidine): 8 µg/mL
MIC −TO ([10]; absence of tomatidine): 32 µg/mL
growth, visually evaluated (normal strain CF07-L): inhibits the growth
Fold (−TO/+TO) (S. haemolyticus sh032; 8 μg/ml of tomatidine): 8 fold
MIC +TO (S. haemolyticus sh032; 8 μg/ml of tomatidine): 8 µg/mL
MIC −TO (S. haemolyticus sh032; absence of tomatidine): 64 µg/mL
MIC [5]: 1 to 2 µg/mL
MIC ([7]; CF07-L + HQNO at 20 μg/ml): 4 µg/mL
MIC ([7]; CF07-L, normal strain): 1 to 2 µg/mL
MIC ([7]; CF07-L, without HQNO): 1 to 2 µg/mL
